Here are results for five compounds from PubChem BioAssay AID1918949 (Molecular Pharmacology Branch, DTP, NCI, 2023).

Each structure is given as a SMILES string. Values joined by “and” are separate entries in the source; they are usually repeats but may differ in a detail not shown here. Equal values may be shown once.

For the assay, the system named is K24384-001-R-PDC complex spheroid viability. The experiment in a line: Anticancer human tumor K24384-001-R-PDC patient-derived pancreatic adenocarcinoma cell line growth inhibition. The conditions noted are these: for viability, T/C: stronger effect = lower value. Put shortly: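 Drug combinations with the LSD1 inhibitor iadademstat tested on tumor cells co-cultured as spheroids with endothelial cells and mesenchymal stem cells. Concentrations descended in half-log increments from clinical Cmax or 10 microM.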

Where [1] appears, read: curve of first compound, second compound 0.1 µM.
Setting [2] is: curve of first compound, second compound 0.316 µM.
The mark [3] stands for this setting: curve of first compound, second compound 1 µM.
Setting [4] is: curve of first compound, second compound 3.16 µM.
Where [5] appears, read: curve of first compound, second compound 10 µM.
[6] abbreviates: second compound 0.1 µM, first compound 0.0316 µM.
Setting [7] is: second compound 0.1 µM, first compound 0.1 µM.
Where [8] appears, read: second compound 0.316 µM, first compound 0.0316 µM.
[9] abbreviates: second compound 0.316 µM, first compound 0.1 µM.
Where [10] appears, read: second compound 1 µM, first compound 0.0316 µM.
Where [11] appears, read: second compound 1 µM, first compound 0.1 µM.
The mark [12] stands for this setting: second compound 3.16 µM, first compound 0.0316 µM.
Where [13] appears, read: second compound 3.16 µM, first compound 0.1 µM.
[14] abbreviates: second compound 10 µM, first compound 0.0316 µM.
Setting [15] is: second compound 10 µM, first compound 0.1 µM.

By IC50 is commonly meant the point on the concentration scale where inhibition reaches its midpoint. For orientation: viability, T/C means the result in the treated group divided by that in the control group, in per cent.
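Also: spheroids exposed to agents for seven days before luminescence viability reading.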
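For viability, T/C in this document: 100% = DMSO vehicle control viability.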

For the compound `CC(C)CC(NC(=O)CNC(=O)c1cc(Cl)ccc1Cl)B1OC(=O)CC(CC(=O)O)(C(=O)O)O1` (centres undefined) + NC1CCC(NC2CC2c2ccccc2)CC1, the IC50 is, setting by setting: under setting [1], 7.55 nM; under setting [2], 5.78 nM; under setting [3], 6.08 nM; under setting [4], 5.59 nM; under setting [5], 5 nM. In addition, the viability, T/C (second compound 0.1 µM, first compound 0.000316 µM) was 100%; the viability, T/C (second compound 0.1 µM, first compound 0.001 µM) is 90.2%; the viability, T/C (second compound 0.1 µM, first compound 0.00316 µM) was 82.7%; the viability, T/C (second compound 0.1 µM, first compound 0.01 µM) is 40.4%; the viability, T/C under setting [6] is 3.3%; the viability, T/C under setting [7] was 0.72%. The viability, T/C runs as follows: (second compound 0.316 µM, first compound 0.000316 µM) 97.4%; (second compound 0.316 µM, first compound 0.001 µM) 91.9%; (second compound 0.316 µM, first compound 0.00316 µM) 75.4%; (second compound 0.316 µM, first compound 0.01 µM) 27.2%; under setting [8], 3.1%; under setting [9], 0.77%. Further, the viability, T/C runs as follows: (second compound 1 µM, first compound 0.000316 µM) 89.9%; (second compound 1 µM, first compound 0.001 µM) 87.7%; (second compound 1 µM, first compound 0.00316 µM) 75.1%; (second compound 1 µM, first compound 0.01 µM) 30.9%; under setting [10], 4.13%; under setting [11], 0.7%. For the same compound, the viability, T/C is 92.1% (second compound 3.16 µM, first compound 0.000316 µM); 78.3% (second compound 3.16 µM, first compound 0.001 µM); 74.1% (second compound 3.16 µM, first compound 0.00316 µM); 26.5% (second compound 3.16 µM, first compound 0.01 µM); 2.82% under setting [12]; 0.68% under setting [13]. Besides, the viability, T/C (second compound 10 µM, first compound 0.000316 µM) was 92.9%; the viability, T/C (second compound 10 µM, first compound 0.001 µM) was 75.7%; the viability, T/C (second compound 10 µM, first compound 0.00316 µM) was 69.8%; the viability, T/C (second compound 10 µM, first compound 0.01 µM) is 22.8%; the viability, T/C under setting [14] is 2.54%; the viability, T/C under setting [15] is 0.55%.
As for `O=C(c1cc(Cc2n[nH]c(=O)c3ccccc23)ccc1F)N1CCN(C(=O)C2CC2)CC1` + NC1CC1c1ccc(-c2cccc(O)c2)cc1, the IC50 under setting [1] was more than 10000 nM; the IC50 under setting [2] is more than 10000 nM; the IC50 under setting [3] is more than 10000 nM; the IC50 under setting [4] was more than 10000 nM; the IC50 under setting [5] is more than 10000 nM. Also, the viability, T/C by setting is: under setting [6], 96.3%; under setting [7], 73.9%; (second compound 0.1 µM, first compound 0.316 µM) 84.4%; (second compound 0.1 µM, first compound 1 µM) 65.8%; (second compound 0.1 µM, first compound 3.16 µM) 56.2%; (second compound 0.1 µM, first compound 10 µM) 67.4%. In addition, the viability, T/C under setting [8] is 89.8%; the viability, T/C under setting [9] was 80.5%; the viability, T/C (second compound 0.316 µM, first compound 0.316 µM) was 79.5%; the viability, T/C (second compound 0.316 µM, first compound 1 µM) is 77%; the viability, T/C (second compound 0.316 µM, first compound 3.16 µM) is 57.6%; the viability, T/C (second compound 0.316 µM, first compound 10 µM) is 66.1%. In addition, the viability, T/C was 78.7% under setting [10]; 73.5% under setting [11]; 72.6% (second compound 1 µM, first compound 0.316 µM); 81% (second compound 1 µM, first compound 1 µM); 66.6% (second compound 1 µM, first compound 3.16 µM); 70.8% (second compound 1 µM, first compound 10 µM). The viability, T/C is 78.7% under setting [12]; 77.3% under setting [13]; 83.8% (second compound 3.16 µM, first compound 0.316 µM); 72.2% (second compound 3.16 µM, first compound 1 µM); 68% (second compound 3.16 µM, first compound 3.16 µM); 59.8% (second compound 3.16 µM, first compound 10 µM). The viability, T/C runs as follows: under setting [14], 86.6%; under setting [15], 81.5%; (second compound 10 µM, first compound 0.316 µM) 76.5%; (second compound 10 µM, first compound 1 µM) 87.4%; (second compound 10 µM, first compound 3.16 µM) 54.5%; (second compound 10 µM, first compound 10 µM) 62.3%.
Turning to `NS(=O)(=O)OCC1CC(n2ccc3c(NC4CCc5ccccc54)ncnc32)CC1O` (centres undefined), the viability, T/C is, setting by setting: (compound 0.00949 µM) 98.5% and 116%; (compound 0.03 µM) 123% and 143%; (compound 0.0949 µM) 109% and 126%; (compound 0.3 µM) 52.2% and 53.9%; (compound 0.949 µM) 34.3% and 34.6%; (compound 3 µM) 19.9% and 22.4%. In addition, the IC50 (curve of compound) is 338 nM and 362 nM.
For `Nc1ccn(C2OC(CO)C(O)C2(F)F)c(=O)n1` (centres undefined), the viability, T/C was 97.6% (compound 0.000949 µM); 89% and 86.8% (compound 0.003 µM); 73% and 73.2% (compound 0.00949 µM); 60.7% and 53.4% (compound 0.03 µM); 44% and 42.3% (compound 0.0949 µM); 33.9% and 28.2% (compound 0.3 µM). For the same compound, where the note is “curve of compound”, the 50% inhibitory concentration (IC50) was 62.5 nM and 45.8 nM.
Turning to `Nc1ncn(C2CC(O)C(CO)S2)c(=O)n1` (centres undefined) + NC1CC1c1ccc(-c2cccc(O)c2)cc1, the IC50 under setting [1] was more than 300 nM; the IC50 under setting [2] was more than 300 nM; the IC50 under setting [3] is more than 300 nM; the IC50 under setting [4] is more than 300 nM; the IC50 under setting [5] was more than 300 nM. For the same compound, the viability, T/C (second compound 0.1 µM, first compound 0.000949 µM) is 102%; the viability, T/C (second compound 0.1 µM, first compound 0.003 µM) was 133%; the viability, T/C (second compound 0.1 µM, first compound 0.00949 µM) was 101%; the viability, T/C (second compound 0.1 µM, first compound 0.03 µM) is 89.8%; the viability, T/C (second compound 0.1 µM, first compound 0.0949 µM) is 67.3%; the viability, T/C (second compound 0.1 µM, first compound 0.3 µM) was 54.9%. For the same compound, the viability, T/C was 102% (second compound 0.316 µM, first compound 0.000949 µM); 97.1% (second compound 0.316 µM, first compound 0.003 µM); 103% (second compound 0.316 µM, first compound 0.00949 µM); 87.1% (second compound 0.316 µM, first compound 0.03 µM); 72.2% (second compound 0.316 µM, first compound 0.0949 µM); 52.1% (second compound 0.316 µM, first compound 0.3 µM). The viability, T/C is 124% (second compound 1 µM, first compound 0.000949 µM); 110% (second compound 1 µM, first compound 0.003 µM); 99.2% (second compound 1 µM, first compound 0.00949 µM); 87.8% (second compound 1 µM, first compound 0.03 µM); 73.1% (second compound 1 µM, first compound 0.0949 µM); 50.6% (second compound 1 µM, first compound 0.3 µM). For the same compound, the viability, T/C is 108% (second compound 3.16 µM, first compound 0.000949 µM); 113% (second compound 3.16 µM, first compound 0.003 µM); 108% (second compound 3.16 µM, first compound 0.00949 µM); 108% (second compound 3.16 µM, first compound 0.03 µM); 92.6% (second compound 3.16 µM, first compound 0.0949 µM); 56.2% (second compound 3.16 µM, first compound 0.3 µM). For the same compound, the viability, T/C by setting is: (second compound 10 µM, first compound 0.000949 µM) 136%; (second compound 10 µM, first compound 0.003 µM) 131%; (second compound 10 µM, first compound 0.00949 µM) 120%; (second compound 10 µM, first compound 0.03 µM) 108%; (second compound 10 µM, first compound 0.0949 µM) 95.3%; (second compound 10 µM, first compound 0.3 µM) 57.2%.
